Article PMC12216609, “Inhibitors of eIF1A-ribosome interaction unveil uORF-dependent regulation of translation initiation and antitumor and antiviral effects” (The EMBO Journal, 2025)
Where “and” joins values, the source holds several entries; their conditions need not be identical. Equal entries are not always repeated.

Assays:
[1] = tested on: CUG/GUG vs AUG start codon luciferase reporters in HEK293T cells; experiment: Near-cognate AUG starting codon fidelity reporter assay (GUG, CUG vs AUG); assay type: cell-based; conditions: for CUG vs AUG (%): CUG start codon reporter relative to AUG reporter (AUG = 100); for CUG vs AUG (%) / GUG vs AUG (%): single-experiment calculation; for GUG vs AUG (%): GUG start codon reporter relative to AUG reporter (AUG = 100); for average CUG and GUG / average CUG and GUG relative to DMSO / CUG Average / GUG Average: NUG experiment; for CUG Average: CUG vs AUG reporter; for GUG Average: GUG vs AUG reporter; for NUG (Final data, Fig. 1E): average CUG and GUG relative to DMSO, 20 µM overnight; for GUG vs AUG data (%): individual repeat; for GUG vs AUG (%) Average: summary average of repeats, DMSO control average […]; for calculation: CUG (AUG = 100) / calculation: GUG (AUG = 100): raw data calculation of one experiment, GFP normalized, AUG set to 100, compound marked (20)
Procedure: We next considered the importance of eIF1A in controlling start codon fidelity in yeast and mammalian cells (Martin-Marcos et al, [2011]; Martin-Marcos et al, [2017]; Sehrawat et al, [2019]; She et al, [2023]) and tested how inhibition of eIF1A by 1Ais affects the initiation from near-cognate AUG. The effect of 1Ais was analyzed using firefly luciferase reporters bearing either AUG (control), CUG, or GUG as the exclusive translation initiation sites. Co-transfected GFP reporter served as an internal control for transfection efficiency.
For the near-cognate AUG Starting codon fidelity reporter assay, HEK293T cells were transfected with 100 ng of the previously described luciferase reporter constructs driven either by AUG, CUG, and GUG (Tang et al, [2017]) together with GFP expressing plasmid (20 ng) as normalizing control. Luciferase and GFP levels were determined as described above.
Appendix Figure S1: (A) HEK293T cells were transfected with Luciferase reporter genes with either CUG or AUG as their exclusive starting codon. 6 hours after transfection, cells were exposed to 1Ais, and the luminescence from all constructs was measured after overnight incubation. Bars represent the ratio between luminescence from the AUG starting codon and CUG after normalization with co-transfected GFP; Error bars represent SEM, * denotes p<0.05 (T-test comparing to DMSO control), n=≥4 independent biological replicates.

eIF1A without NTT = target: T1, eIF1A without NTT (Homo sapiens, UniProt P47813); experiment: Fluorescence binding assay with NTT-truncated eIF1A
T1 construct: His-bdSUMO (cleaved yes); made in house; host or cells: E. coli (BL-21)
T1 sequence (P47813 31-144 limits assumed): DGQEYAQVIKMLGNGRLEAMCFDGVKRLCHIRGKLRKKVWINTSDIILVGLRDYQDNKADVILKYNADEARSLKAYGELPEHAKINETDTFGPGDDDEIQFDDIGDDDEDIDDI

[2] = tested on: uORF-bearing 5'UTR firefly reporters in HEK293T cells; experiment: uORF reinitiation / leaky scanning firefly reporters; conditions: for ff/rl, 46 leaky reporter / ff/rl, 46 reporter / ff/rl, normal reporter: single replicates, not normalized to DMSO
Description: (M) The reference and uORF-bearing reporters were transfected to HEK293T cells together with RL, which served to normalize translation efficiency. The reporter activities are represented as firefly vs RL; n ≥3 independent biological replicates, error bars represent SEM. *P < 0.05, **P < 0.01, Student t test. (N) Firefly Reporters (J) were transfected to HEK293T cells together with normalizing RL. […] Results are represented as firefly vs. RL normalized to DMSO in each biological replicate; n = 4, error bars represent SEM. *P < 0.05, **P < 0.01, Student t test.
In the first and second, we inserted an out-of-frame uAUG 46 or 95 nucleotides before the main ORF, respectively, followed by a downstream stop codon generating an uORF of 10 amino acids. In these constructs, the translation from the main ORF could be either by reinitiation or leaky scanning. In the third construct, this out of frame uAUG lacks a stop codon, causing initiation from the main ORF to exclusively occur via leaky scanning (Fig. 4L). These reporters were transfected into HEK293T cells together with RL luciferase reporter for normalizing transfection efficiency. […] We next examined these reporters in the presence of 1Ais.

[3] = compound at 20uM (summary head)
[4] = compound at 10uM (summary head)

C=CCNC(=O)CN1CCN(Cc2nc3cc(-c4ccc(Cl)cc4)sc3c(=O)[nH]2)CC1 [1Ai-1524]
CUG vs AUG (%) [1, 3]: 6.424%
GUG vs AUG (%) [1, 3]: 0.742%
average CUG and GUG [1]: 7.9532
average CUG and GUG relative to DMSO [1]: 1.763
CUG Average [1]: 12.0643
GUG Average [1]: 3.842
NUG (Final data, Fig. 1E) [1]: 1.763
GUG vs AUG data (%) ([1]; compound at 20uM): 4.35% and 2.64% and 2.99% and 5.39%
GUG vs AUG (%) Average ([1]; compound at 20uM): 3.84%

CCOC(=O)c1ccsc1NC(=O)CN1C(=O)NC(C)(c2cccc3ccccc23)C1=O (stereo not shown) [1Ai-1861]
CUG vs AUG (%) [1, 3]: 14.0136%
GUG vs AUG (%) [1, 3]: 2.535%
average CUG and GUG [1]: 6.257
average CUG and GUG relative to DMSO [1]: 1.387
CUG Average [1]: 9.413
GUG Average [1]: 3.101
NUG (Final data, Fig. 1E) [1]: 1.387
GUG vs AUG data (%) ([1]; compound at 20uM): 2.64% and 2.15% and 3.17% and 4.44%
GUG vs AUG (%) Average ([1]; compound at 20uM): 3.10%

O=C(CSc1nc(-c2ccccc2)cn1-c1ccccc1)NC(=O)Nc1ccccc1 [1Ai-2383]
average CUG and GUG [1]: 5.372
average CUG and GUG relative to DMSO [1]: 1.191
CUG Average [1]: 8.595
GUG Average [1]: 2.149
NUG (Final data, Fig. 1E) [1]: 1.191
GUG vs AUG data (%) ([1]; compound at 20uM): 2.05% and 2.35% and 1.83% and 2.36%
GUG vs AUG (%) Average ([1]; compound at 20uM): 2.15%

COc1ccc2oc(C(=O)OC(C)C(=O)Nc3sccc3C(N)=O)c(C)c2c1 (stereo not shown) [1Ai-3044]
CUG vs AUG (%) [1, 4]: 8.177%
GUG vs AUG (%) [1, 4]: 1.952%
average CUG and GUG [1]: 5.9112
average CUG and GUG relative to DMSO [1]: 1.3106
CUG Average [1]: 9.682
GUG Average [1]: 2.141
NUG (Final data, Fig. 1E) [1]: 1.311
GUG vs AUG data (%) ([1]; compound at 10uM): 2.24% and 1.90% and 2.01% and 2.41%
GUG vs AUG (%) Average ([1]; compound at 10uM): 2.14%

O=C(C=Cc1ccc(Cl)s1)Nc1cccc2ncccc12 [1Ai-4860]
CUG vs AUG (%) [1, 3]: 3.6331%
GUG vs AUG (%) [1, 3]: 0.9953%
average CUG and GUG [1]: 2.314
average CUG and GUG relative to DMSO [1]: 0.5131
CUG Average [1]: 3.6331
GUG Average [1]: 0.9953
NUG (Final data, Fig. 1E) [1]: 0.513
GUG vs AUG data (%) ([1]; compound at 20uM): 1.48% and 1.00%
GUG vs AUG (%) Average ([1]; compound at 20uM): 1.24%

COc1ccc(C=C2CSc3ccc(Cl)cc3C2=O)cc1O [1Ai-5175]
binding to NTT-truncated eIF1A (eIF1A without NTT): no binding
NTT truncation IC50 (eIF1A without NTT; eIF1A without NTT): No binding
IC50 concentration (µM), NTT truncation (eIF1A without NTT; summary table, fluorescence binding assay): No binding
CUG vs AUG (%) ([1]; compound at 5uM (summary head)): 10.1681% and 8.512%
GUG vs AUG (%) ([1]; compound at 5uM (summary head)): 2.289% and 2.982%
average CUG and GUG [1]: 5.826
average CUG and GUG relative to DMSO [1]: 1.2918
CUG Average [1]: 9.011
GUG Average [1]: 2.642
NUG (Final data, Fig. 1E) [1]: 1.292
GUG vs AUG data (%) ([1]; compound at 5uM): 2.76% and 3.14% and 2.85% and 1.82%
GUG vs AUG (%) Average ([1]; compound at 5uM): 2.64%
calculation: CUG (AUG = 100) [1]: 4.394
calculation: GUG (AUG = 100) [1]: 1.456
effect on uORF / leaky scanning reporters ([2]; 20uM (1Ai-5175 at 5uM), overnight): inhibit the short-distance reinitiation
normalized to DMSO, 46 leaky, average ([2]; 46 leaky reporter, average of biological repeats): 0.842
normalized to DMSO, 46 leaky, biological repeats ([2]; 46 leaky reporter, biological repeats 1-4): 0.696 and 0.690 and 0.975 and 1.007
normalized to DMSO, 46 leaky ([2]; 46 leaky reporter, single replicates 1-8 (two dates)): 0.670 and 0.722 and 0.651 and 0.728 and 1.015 and 0.935 and 0.924 and 1.090
normalized to DMSO, -46, average ([2]; -46 reporter, average of biological repeats): 0.583
normalized to DMSO, -46, biological repeats ([2]; -46 reporter, biological repeats 1-4): 0.455 and 0.565 and 0.613 and 0.698
normalized to DMSO, -46 ([2]; -46 reporter, single replicates 1-8 (two dates)): 0.448 and 0.461 and 0.490 and 0.641 and 0.602 and 0.625 and 0.452 and 0.944
ff/rl, 46 leaky reporter ([2]; experiment 12.3.24): 2.64E-02 and 2.84E-02 and 2.56E-02 and 2.87E-02
ff/rl, 46 reporter ([2]; experiment 12.3.24): 9.52E-02 and 9.80E-02 and 1.04E-01 and 1.36E-01
ff/rl, normal reporter ([2]; experiment 12.3.24): 3.34E-01 and 1.68E-01 and 2.05E-01 and 1.98E-01
ff/rl, 46 leaky reporter ([2]; experiment 13.03.24): 4.57E-03 and 4.21E-03 and 4.16E-03 and 4.91E-03
ff/rl, 46 reporter ([2]; experiment 13.03.24): 1.39E-02 and 1.45E-02 and 1.05E-02 and 2.19E-02
ff/rl, normal reporter ([2]; experiment 13.03.24): 4.32E-02 and 3.04E-02 and 3.07E-02 and 3.75E-02
reporter activity norm to DMSO, minus46 ([2]; minus46 reporter, 95nt from uORF to main ORF experiment, Figure 4N source data, replicate experiments, DMSO = 1): 0.1896 and 0.185
95nt from uORF to main ORF experiment, minus46, average (DMSO = 1) ([2]; minus46 reporter, average): 0.497
reporter activity norm to DMSO, minus 95 ([2]; minus 95 (nt) reporter, 95nt from uORF to main ORF experiment, Figure 4N source data, replicate experiments, DMSO = 1): 0.3264 and 0.388
95nt from uORF to main ORF experiment, minus 95nt, average (DMSO = 1) ([2]; minus 95nt reporter, average): 0.9478
reporter activity norm to DMSO, ref ([2]; ref reporter, 95nt from uORF to main ORF experiment, Figure 4N source data, replicate experiments, DMSO = 1): 0.381 and 0.3727
95nt from uORF to main ORF experiment, ref, average (DMSO = 1) ([2]; ref reporter, average): 0.3768
normalized to DMSO, refference, average ([2]; refference reporter, average of biological repeats): 0.842
normalized to DMSO, refference, biological repeats ([2]; refference reporter, biological repeats 1-4): 0.886 and 0.712 and 0.917 and 0.851
normalized to DMSO, refference ([2]; refference reporter, single replicates 1-8 (two dates)): 1.178 and 0.594 and 0.724 and 0.700 and 1.078 and 0.757 and 0.766 and 0.936
normalized to DMSO, single replicates ([2]; reporter 46, experiment 12.3.24): 4.48E-01 and 4.61E-01 and 4.90E-01 and 6.41E-01
normalize to DMSO, average ([2]; reporter 46, experiment 12.3.24, DMSO = 1): 0.51
normalized to DMSO, single replicates ([2]; reporter 46, experiment 13.3.24): 6.02E-01 and 6.25E-01 and 4.52E-01 and 9.44E-01
normalize to DMSO, average ([2]; reporter 46, experiment 13.3.24, DMSO = 1): 0.6556
normalize to DMSO, average ([2]; reporter 46 leaky, experiment 12.3.24, DMSO = 1): 0.6928
normalized to DMSO, single replicates ([2]; reporter 46 leaky, experiment 13.3.24): 1.01E+00 and 9.35E-01 and 9.24E-01 and 1.09E+00
normalize to DMSO, average ([2]; reporter 46 leaky, experiment 13.3.24, DMSO = 1): 0.991
normalized to DMSO, single replicates ([2]; reporter normal (refference), experiment 12.3.24): 1.18E+00 and 5.94E-01 and 7.24E-01 and 7.00E-01
normalized to DMSO, single replicates ([2]; reporter normal (refference), experiment 13.3.24): 1.08E+00 and 7.57E-01 and 7.66E-01 and 9.36E-01
normalize to DMSO, average ([2]; reporter refference, experiment 12.3.24, DMSO = 1): 0.7988
normalize to DMSO, average ([2]; reporter refference, experiment 13.3.24, DMSO = 1): 0.8842
inhibitory effect with extended (long) reinitiation distance ([2]; uORF to main ORF distance extended by 49 nt): lost

Oc1cc(Cl)ccc1Oc1ccc(Cl)cc1Cl [1Ai-6248]
CUG vs AUG (%) ([1]; compound at 5uM (summary head)): 9.031% and 6.716%
GUG vs AUG (%) ([1]; compound at 5uM (summary head)): 1.808% and 1.909%
average CUG and GUG [1]: 4.51
average CUG and GUG relative to DMSO [1]: 1
CUG Average [1]: 7.441
GUG Average [1]: 1.579
NUG (Final data, Fig. 1E) [1]: 1.000
GUG vs AUG data (%) ([1]; compound at 5uM): 1.28% and 2.36% and 1.32% and 1.37%
GUG vs AUG (%) Average ([1]; compound at 5uM): 1.58%

Cn1c(=O)c2ccccc2n2c(CNC(c3ccc4c(c3)CCC4)c3cccs3)nnc12 (stereo not shown) [1Ai-7688]
CUG vs AUG (%) [1, 3]: 6.15%
GUG vs AUG (%) [1, 3]: 1.391%
average CUG and GUG [1]: 3.434
average CUG and GUG relative to DMSO [1]: 0.7613
CUG Average [1]: 5.347
GUG Average [1]: 1.52
NUG (Final data, Fig. 1E) [1]: 0.761
GUG vs AUG data (%) ([1]; compound at 20uM): 1.96% and 1.30% and 1.49% and 1.33%
GUG vs AUG (%) Average ([1]; compound at 20uM): 1.52%
calculation: CUG (AUG = 100) [1]: 4.522
calculation: GUG (AUG = 100) [1]: 1.611

O=S(=O)(c1ccccc1)N1CCN(C2c3ccccc3-c3ccccc32)CC1 [1Ai-9025]
average CUG and GUG [1]: 4.366
average CUG and GUG relative to DMSO [1]: 0.9681
CUG Average [1]: 6.84
GUG Average [1]: 1.892
NUG (Final data, Fig. 1E) [1]: 0.968
GUG vs AUG data (%) ([1]; compound at 20uM): 2.56% and 1.57% and 2.32% and 1.11%
GUG vs AUG (%) Average ([1]; compound at 20uM): 1.89%
